This passage reports IC50 results from patent US9708326B2, “Inhibitors of bruton's tyrosine kinase” (Pharmacyclics LLC, priority 2013, dated 2017).

A value given as a limit tells only on which side of the number the result lay.

Format in all cases: biochemical
Holding throughout (settings): one of the methods outlined in Example 11a, 11b and 11c

In one assay the target is T1, BTK (Homo sapiens, UniProt Q06187).
T1 construct: N-terminal His6-tagged, recombinant, full-length, human BTK; His6 (N); made in house; host or cells: baculovirus / Sf21 insect cells
T1 sequence (Q06187 whole entry): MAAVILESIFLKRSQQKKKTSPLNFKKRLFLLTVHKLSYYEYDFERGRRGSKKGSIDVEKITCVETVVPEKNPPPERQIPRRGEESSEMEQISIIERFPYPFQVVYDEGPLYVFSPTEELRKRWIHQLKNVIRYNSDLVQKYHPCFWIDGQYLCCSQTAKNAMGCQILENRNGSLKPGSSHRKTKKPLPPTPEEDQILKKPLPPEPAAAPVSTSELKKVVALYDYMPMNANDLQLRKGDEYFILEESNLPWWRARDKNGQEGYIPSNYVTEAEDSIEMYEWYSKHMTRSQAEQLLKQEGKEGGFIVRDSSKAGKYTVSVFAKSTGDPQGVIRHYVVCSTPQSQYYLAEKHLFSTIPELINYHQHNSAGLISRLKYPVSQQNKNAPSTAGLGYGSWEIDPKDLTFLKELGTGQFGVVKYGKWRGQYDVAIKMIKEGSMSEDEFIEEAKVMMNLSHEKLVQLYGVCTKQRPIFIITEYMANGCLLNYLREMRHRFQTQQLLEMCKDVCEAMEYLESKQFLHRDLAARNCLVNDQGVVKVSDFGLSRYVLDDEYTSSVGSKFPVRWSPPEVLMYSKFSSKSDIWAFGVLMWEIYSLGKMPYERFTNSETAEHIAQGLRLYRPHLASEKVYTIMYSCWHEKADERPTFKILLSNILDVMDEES
The experiment in a line: Inhibition of a panel of kinases: BTK in vitro kinase assay. The procedure:
(§1) Btk kinase activity is determined using a time-resolved fluorescence resonance energy transfer (TR-FRET) methodology. Measurements are performed in a reaction volume of 50 μL using 96-well assay plates. Kinase enzyme, inhibitor, ATP (at the Km for the kinase), and 1 μM peptide substrate (Biotin-AVLESEEELYSSARQ-NH2) are incubated in a reaction buffer composed of 20 mM Tris, 50 mM NaCl, MgCl2 (5-25 mM depending on the kinase), MnCl2 (0-10 mM), 1 mM DTT, 0.1 mM EDTA, 0.01% bovine serum albumin, 0.005% Tween-20, and 10% DMSO at pH 7.4 for one hour. The reaction is quenched by the addition of 1.2 equivalents of EDTA (relative to divalent cation) in 25 μL of 1× Lance buffer (Perkin-Elmer). Streptavidin-APC (Perkin-Elmer) and Eu-labeled p-Tyr100 antibody (Perkin-Elmer) in 1× Lance buffer are added in a 25 μL volume to give final concentrations of 100 nM and 2.5 nM, respectively, and the mixture is allowed to incubate for one hour. The TR-FRET signal is measured on a multimode plate reader with an excitation wavelength (λEx) of 330 nm and detection wavelengths (λEm) of 615 and 665 nm. Activity is determined by the ratio of the fluorescence at 665 nm to that at 615 nm. For each compound, enzyme activity is measured at various concentrations of compound. Negative control reactions are performed in the absence of inhibitor in replicates of six, and two no-enzyme controls are used to determine baseline fluorescence levels Inhibition constants, Ki(app), ware obtained using the program BatchKi (Kuzmic et al. (2000), Anal. Biochem. 286:45-50). IC50s are obtained according to the equation: IC50={Ki(app)/(1+[ATP]/Km^ATP)}+[E]total/2;
(§2) For all kinases, [ATP]=Km^ATP, [Btk]total=0.5 nM and [Lck]total=6 nM.
(§3) Kinase activity is measured in vitro using electrophoretic mobility shift assay. The kinase reactions are assembled in a total volume of 25 μL in 384 well plates. The reactions comprise: BTK enzyme (1 nM, N-terminal His6-tagged, recombinant, full-length, human BTK purified from baculovirus Sf21 insect cell system), inhibitor, ATP (16 μM, the apparent Km for the kinase), fluorescently labeled peptide substrate (1 μM, FAM-GEEPLYWSFPAKKK-NH2) in a reaction buffer composed of 100 mM HEPES, pH7.5, 5 mM MgCl2 1 mM DTT, 0.1% bovine serum albumin, 0.01% Triton X-100, and 1% DMSO. The reaction is incubated for one hour and is quenched by the addition of 45 μL of termination buffer (100 mM HEPES, pH7.5, 0.01% Triton X-100, 30 mM EDTA). The terminated reactions are analyzed using 12 channel LabChip® 3000 microfluidic detection instrument (Caliper Life Sciences). The enzymatic phosphorylation of the peptide results in a change in net charge, enabling electrophoretic separation of product from substrate peptide. As substrate and product peptides are separated, two peaks of fluorescence are observed. Change in the relative fluorescence intensity of the substrate and product peaks is the parameter measured, reflecting enzyme activity. In the presence of an inhibitor, the ratio between product and substrate is altered: the signal of the product decreases, while the signal of the substrate increases.
(§4) Activity in each sample is determined as the product to sum ratio (PSR): P/(S+P), where P is the peak height of the product peptide and S is the peak height of the substrate peptide. For each compound, enzyme activity is measured at various concentrations (12 concentrations of compound spaced by 3× dilution intervals). Negative control samples (0%-inhibition in the absence of inhibitor) and positive control samples (100%-inhibition, in the presence of 20 mM EDTA) are assembled in replicates of four and are used to calculate %-inhibition values for each inhibitor at each concentration. Percent inhibition (Pinh) is determined using following equation: […]

The next assay deals with EGFR (Homo sapiens, UniProt P00533). Nature of the assay: Inhibition of a panel of kinases: EGFR in vitro kinase assay.
EGFR, sequence (P00533 25-1210, species assumed): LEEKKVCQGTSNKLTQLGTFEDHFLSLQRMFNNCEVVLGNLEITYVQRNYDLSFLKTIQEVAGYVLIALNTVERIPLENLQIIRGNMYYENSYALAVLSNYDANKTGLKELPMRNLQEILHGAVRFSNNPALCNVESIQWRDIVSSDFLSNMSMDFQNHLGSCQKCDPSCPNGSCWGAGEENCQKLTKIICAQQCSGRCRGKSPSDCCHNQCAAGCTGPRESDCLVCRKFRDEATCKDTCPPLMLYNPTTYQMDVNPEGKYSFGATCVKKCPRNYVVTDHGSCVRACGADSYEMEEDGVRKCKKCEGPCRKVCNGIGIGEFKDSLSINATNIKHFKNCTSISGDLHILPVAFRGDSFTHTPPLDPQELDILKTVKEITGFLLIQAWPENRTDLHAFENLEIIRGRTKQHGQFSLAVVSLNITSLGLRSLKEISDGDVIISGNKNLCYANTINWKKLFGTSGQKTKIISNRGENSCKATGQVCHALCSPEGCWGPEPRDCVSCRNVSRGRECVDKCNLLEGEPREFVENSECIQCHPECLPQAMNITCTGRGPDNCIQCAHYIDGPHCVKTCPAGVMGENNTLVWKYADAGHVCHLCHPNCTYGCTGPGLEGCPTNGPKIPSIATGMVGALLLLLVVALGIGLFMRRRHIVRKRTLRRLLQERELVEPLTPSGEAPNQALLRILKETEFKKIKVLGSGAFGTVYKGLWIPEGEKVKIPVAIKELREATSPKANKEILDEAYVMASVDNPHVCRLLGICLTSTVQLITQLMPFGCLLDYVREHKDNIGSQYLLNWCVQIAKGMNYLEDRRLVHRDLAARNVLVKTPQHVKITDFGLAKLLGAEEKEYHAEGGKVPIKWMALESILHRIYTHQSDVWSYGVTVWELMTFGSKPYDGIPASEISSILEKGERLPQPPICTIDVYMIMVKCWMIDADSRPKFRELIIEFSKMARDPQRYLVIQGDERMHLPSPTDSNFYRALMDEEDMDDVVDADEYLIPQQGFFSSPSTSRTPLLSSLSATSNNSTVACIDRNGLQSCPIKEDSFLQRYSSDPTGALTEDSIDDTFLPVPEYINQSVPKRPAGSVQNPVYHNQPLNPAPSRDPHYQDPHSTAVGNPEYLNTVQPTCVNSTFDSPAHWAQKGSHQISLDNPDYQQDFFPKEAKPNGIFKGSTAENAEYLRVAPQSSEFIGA
In a further assay the target is LCK (Homo sapiens, UniProt P06239). Nature of the assay: Inhibition of a panel of kinases: LCK in vitro kinase assay. The procedure: as §1, §2, §3, §4
LCK, sequence (P06239 whole entry, species assumed): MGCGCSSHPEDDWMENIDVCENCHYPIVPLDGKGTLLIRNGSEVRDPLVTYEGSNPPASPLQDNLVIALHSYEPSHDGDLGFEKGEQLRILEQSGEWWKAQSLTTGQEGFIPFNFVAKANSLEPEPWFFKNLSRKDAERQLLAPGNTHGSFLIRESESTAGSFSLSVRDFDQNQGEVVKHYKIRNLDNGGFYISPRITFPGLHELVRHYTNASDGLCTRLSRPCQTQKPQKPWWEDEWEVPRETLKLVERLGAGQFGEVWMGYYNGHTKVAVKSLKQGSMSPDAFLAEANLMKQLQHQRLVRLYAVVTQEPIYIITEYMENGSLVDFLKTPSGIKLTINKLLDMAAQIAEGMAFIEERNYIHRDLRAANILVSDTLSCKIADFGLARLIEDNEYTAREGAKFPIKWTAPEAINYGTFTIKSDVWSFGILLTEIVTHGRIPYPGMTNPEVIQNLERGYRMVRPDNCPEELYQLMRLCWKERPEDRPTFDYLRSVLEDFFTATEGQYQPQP

For the compound `CN(C)C/C=C/C(=O)Nc1cccc(-n2c(=O)[nH]c3cnc(Nc4ccc(F)cc4)nc32)c1` [Compound 48, (E)-4-(dimethylamino)-N-(3-(2-(4-fluorophenylamino)-8-oxo-7H-purin-9(8H)-yl)phenyl)but-2-enamide], the values for the concentration for half-maximal inhibition (IC50) at BTK, on EGFR and on LCK were less than 100 nM, 1000 to 10000 nM and 1000 to 10000 nM, respectively.
For the compound `C=CC(=O)Nc1cccc(-c2n[nH]c3cnc(Nc4ccc(OCCOC)cc4)nc23)c1` [Compound 54, N-(3-(5-(4-(2-methoxyethoxyl)phenylamino)-1H-pyrazolo[4,3-d]pyrimidin-3-yl)phenyl)acrylamide], the results for the IC50 against BTK, on EGFR and against LCK were less than 100 nM, 1000 to 10000 nM and 100 to 1000 nM, respectively.
For `C=CC(=O)Nc1cccc(-n2c(=O)[nH]c3cnc(Nc4ccc(F)cc4)nc32)c1` [Compound 17, N-(3-(2-(4-fluorophenylamino)-8-oxo-7H-purin-9(8H)-yl)phenyl)acrylamide], in that order: less than 100 nM, 100 to 1000 nM and more than 10000 nM.
Take `COCCOc1ccc(Nc2ncc3[nH]c(=O)n(-c4cccc(NC(=O)/C=C/CN(C)C)c4)c3n2)cc1` [Compound 6, (E)-4-(dimethylamino)-N-(3-(2-(4-(2-methoxyethoxyl)phenylamino)-8-oxo-7H-purin-9(8H)-yl)phenyl)but-2-enamide]: the half-inhibitory concentration (IC50) at BTK is less than 100 nM; against EGFR, 1000 to 10000 nM.
Regarding `CN(C)C/C=C/C(=O)N1CCC(n2c(=O)[nH]c3cnc(Nc4ccc(F)cc4)nc32)CC1` [Compound 35, (E)-9-(1-(4-(dimethylamino)but-2-enoyl)piperidin-4-yl)-2-(4-fluorophenylamino)-7H-purin-8(9H)-one], the IC50 is 100 to 1000 nM at BTK, more than 10000 nM at EGFR and 1000 to 10000 nM on LCK.
For `C=CC(=O)N(C)c1cccc(-n2c(=O)[nH]c3cnc(Nc4ccc(OCCOC)cc4)nc32)c1` [Compound 13, N-(3-(2-(4-(2-methoxyethoxyl)phenylamino)-8-oxo-7H-purin-9(8H)-yl)phenyl)-N-methylacrylamide], in that order: less than 100 nM, 1000 to 10000 nM and 1000 to 10000 nM.
The corresponding values for `CN(C)C/C=C/C(=O)N1CCC[C@@H](n2c(=O)[nH]c3cnc(Nc4ccc(F)cc4)nc32)C1` [Compound 29, (R,E)-9-(1-(4-(dimethylamino)but-2-enoyl)piperidin-3-yl)-2-(4-fluorophenylamino)-7H-purin-8(9H)-one] are 100 to 1000 nM, 1000 to 10000 nM and 1000 to 10000 nM.
For `C=CC(=O)Nc1cccc(-c2c[nH]c3cnc(Nc4ccc(OCCOC)cc4)nc23)c1` [Compound 60, N-(3-(2-(4-(2-methoxyethoxyl)phenylamino)-5H-pyrrolo[3,2-d]pyrimidin-7-yl)phenyl)acrylamide], in that order: 100 to 1000 nM, 1000 to 10000 nM and 1000 to 10000 nM.
For the compound `C=CC(=O)Nc1cccc(-n2c(=O)[nH]c3cnc(Nc4ccc(OCCOC)cc4)nc32)c1` [Compound 43, N-(3-(2-(4-(2-methoxyethoxyl)phenylamino)-8-oxo-7H-purin-9(8H)-yl)phenyl)acrylamide], the IC50 was less than 100 nM against BTK, 1000 to 10000 nM against EGFR and more than 10000 nM at LCK.
As for `CN(C)C/C=C/C(=O)N1CC(n2c(=O)[nH]c3cnc(Nc4ccc(F)cc4)nc32)C1` [Compound 23, (E)-9-(1-(4-(dimethylamino)but-2-enoyl)azetidin-3-yl)-2-(4-fluorophenylamino)-7H-purin-8(9H)-one], the IC50 is 100 to 1000 nM against BTK and more than 10000 nM at EGFR.

As usually defined, the IC50 is the midpoint of a concentration-inhibition curve. A lower IC50 goes with greater potency.
